Assay results reported in US20260142006A1, “APPARATUS AND METHODS FOR DETERMINING SENSITIVITY TO OSIMERTINIB” (Zephyr AI, Inc., priority 2022, published 2026).

Assays:
NSCLC = assay: overall survival of osimertinib-treated NSCLC patients (AACR Project GENIE cohort), predicted sensitive vs. less sensitive; assay type: in vivo, human; conditions: 334 osimertinib-treated patients
Description: FIG. 8 depicts a Kaplan-Meier plot showing corresponding overall survival (OS) measurements of patients predicted, according to methods of the present disclosure, to be sensitive vs. insensitive to ismertinib. NSCLC patients predicted to be sensitive experienced a 35-month increased median OS than the predicted less sensitive group (log-rank test p-value<10-5; HR=1.57 (1.43-1.78, 95% CI)).
A clinicogenomics cohort from AACR Project GENIE, which included 334 patients treated with osimertinib, was used to validate the predictive ability of the methods disclosed herein. Data obtained in real-world settings were used to assign drug sensitivity predictions to individual patients in a RWD cohort of NSCLC patients treated with osimertinib. FIG. 8, a Kaplan-Meier plot, depicts overall survival (OS) measurements corresponding to patients predicted to be sensitive vs. insensitive. NSCLC patients predicted to be sensitive experienced a 35-month increased median OS than the NSCLC patients predicted to be less sensitive (log-rank test p-value<10-5; HR=1.57 (1.43-1.78, 95% CI)).

cancer cell lines = assay: area under the drug response curve (AUC) of cancer cell lines exposed to osimertinib; assay type: cell-based; conditions: AUC of 1 = growth equal to growth without osimertinib
Description: FIG. 4D depicts a boxplot of area under the drug response curve values for cell lines partitioned into a first group (sensitive) and the second group (non-sensitive) of cancer cell lines, by a machine learning model disclosed herein.
FIG. 4D depicts a graph of a box and whisker plot of area under the drug response curve (AUC) values for the first group (sensitive) and the second group (non-sensitive) of cancer cell lines. […] Furthermore, instead of generating the machine learning model wherein the model learns a point estimate for each of the parameters of the partitioning matrix (e.g., two or more genes), the machine learning model may be generated in a Bayesian context, wherein the machine learning model learns the posterior parameter distribution for the parameters of the partitioning matrix, the posterior parameter distribution may be approximately gaussian. For example, when the parameters of the partitioning matrix include 7 distinct genes, the machine learning model may learn the posterior parameter distribution for 8 different parameters (e.g., 7 genes plus an intercept term). In some embodiments, the posterior parameter distribution may have a confidence region of about 90%. The graphical representation of the confidence region of the posterior parameter distribution may depict ellipse enclosing a high-density region.

NSCLC tumor PDX models = assay: tumor response (mRECIST) of treatment-naïve NSCLC patient-derived xenograft (PDX) models in mice; assay type: in vivo; conditions: 25 mg/kg/day for 3 weeks, NOD/SCID or BALB/c nude mice
Description: FIG. 9 depicts a method for further validation of sensitivity predictions using patient-dervied xenograft (PDX) models (HuBase™, CrownBio®). Treatment naïve PDX tumors were subcutaneously implanted into female non-obese diabetic/severe combined immunodeficient (NOD/SCID) or BALB/c nude mice in triplicate for a total of 96 mice (n=48 treated; 48 vehicle-treated controls). Mice were assigned labels. After implanted tumors reached a size of 200 mm^3, mice were randomized into treatment and control groups. Treated mice were dosed with 25 mg/kg/day of osimertinib for 3 weeks. Changes in tumor volume were calculated. For each PDX model, tumor growth for treatment groups and control groups was assessed.
To validate the predictions of tumor sensitivity/insensitivity, as described above, data were acquired using treatment-naïve NSCLC tumor (patient-derived xenograft) PDX models available via HuBase™ (CrownBio®, an online database offering complete genomic annotation of the PDX models).
The current FDA label for osimertinib (FIG. 7) was used to assign PDX tumors to “FDA ON” or “FDA OFF” label groups based on the presence or absence of DNA alterations indicated for this drug (i.e., L858R mutation, T790M mutation, or exon 19 deletion). PDX tumors were also assigned label groups based on sensitivity predictions, as described above. Tumors labeled “Zephyr ON” included those that were predicted to be osimertinib-sensitive and samples labeled “Zephyr OFF” include those predicted to be osimertinib-insensitive. PDX models were then divided into four cohorts: FDA ON/ZEPHYR ON; FDA OFF/ZEPHYR ON; FDA ON/ZEPHYR OFF; and FDA OFF/ZEPHYR OFF.
Treatment naïve PDX tumors were subcutaneously implanted into female NOD/SCID or BALB/c nude mice in triplicate for a total of 96 mice (n=48 treated; 48 vehicle-treated controls). After implanted tumors reached a size of 200 mm^3, mice were randomized into treatment and control groups. Treated mice were dosed with 25 mg/kg/day of osimertinib for 3 weeks. Changes in tumor volume were calculated as previously described, e.g., in Gao et al., Nat. Med. 21, 1318-1325 (2015). For each PDX model, tumor growth for treatment groups and control groups (vehicle only) was assessed.
This final cohort represents an expansion of the patient population that can be successfully treated with osimertinib that is not captured by the existing FDA label.

C=CC(=O)Nc1cc(Nc2nccc(-c3cn(C)c4ccccc34)n2)c(OC)cc1N(C)CCN(C)C [osimertinib]
increase in median overall survival (OS), predicted sensitive vs. predicted less sensitive (NSCLC; real-world data, log-rank test p-value<10-5): 35 month
hazard ratio (HR) for overall survival (NSCLC; 95% CI in brackets): 1.57 (1.43-1.78, 95% CI)
average AUC (area under the drug response curve) (cancer cell lines; first group (predicted sensitive) of cancer cell lines): about 0.9
average AUC (area under the drug response curve) (cancer cell lines; second group (predicted non-sensitive) of cancer cell lines): about 0.95
tumor response by mRECIST (NSCLC tumor PDX models; FDA OFF/ZEPHYR OFF cohort): disease progression
tumor response by mRECIST (NSCLC tumor PDX models; FDA OFF/ZEPHYR ON cohort (no on-label EGFR alteration, predicted sensitive)): partial to complete response
tumor response by mRECIST (NSCLC tumor PDX models; FDA ON/ZEPHYR OFF cohort): a mix of complete responses and disease progression
tumor response by mRECIST (NSCLC tumor PDX models; FDA ON/ZEPHYR ON cohort): complete response
